# Experimental data: patent EP1067965B1, “PHARMACEUTICAL COMPOSITION FOR TREATING CEREBRAL APOPLEXY AND CRANIOCEREBRAL TRAUMA” (Bayer HealthCare AG, priority 1997, dated 1999)
# Legend:
# [1] = tested on: isolierte Aortaringe des Kaninchens; test: Inhibition of KCl-induced contraction of isolated rabbit aortic rings; type: cell-based; conditions: KCl 1 x 10^-2 mol/l; mean ± standard deviation; Nimodipin value under a comparable set-up; read-out: EC50-Wert, Inhibition der KCl-induzierten Kontraktion der Kaninchen-Aortenringe
# Text: Im Allgemeinen heben Kalziumkanalantagonisten die KCl-induzierte Kontraktion isolierter Aortaringe des Kaninchens auf (vgl. Arzneim.-Forsch./Drug Res. 1992, 42, 795-797; J. Pharmacol. Exp.Ther. 1953, 108,129-143.).
# Kaninchen beiderlei Geschlechts werden schmerzlos betäubt und entblutet. Der thorakale Teil der Aorta descendens wird ohne Verletzung der Endothelschicht freipräpariert und auf ca. 2 mm breite spiraienförmige Streifensegmente geschnitten und einzeln unter einer Anfangsbelastung von ca. 2 g in 10ml Carbogen-begaste Krebs-Bicarbonat-Pufferlösung (37°C) verbracht.
# Kontraktionen werden isometrisch erfaßt und ausgewertet.
# Die funktionelle Integrität des Endotheliums wird durch Noradrenalin (1 x 10^-8 mol/l) induzierte Kontraktionen und durch Acetylcholin (1 x 10^-8 - 1 x 10^-5 mol/l) hervorgerufene Relaxation getestet. Nach einer Auswasch- und Ruhephase sowie Erreichen eines stabilen Basalwertes (ca. nach 2 Stunden) wird mit Zugabe von 0,25 ml KCl, bei einer Endkonzenration von 1 x 10^-2 mol/l eine submaximale (60-80%) Kontraktion der Aortastreifen ausgelöst. Die Testsubstanz wird während der Plateauphase der KCl induzierten Kontraktion in die Bäder appliziert (in steigender Dosierungen: 1 x 10^-12 - 1 x 10^-5 mol/l Endkonzentration) und die Wirkung auf den kontrahierten Gefäßstreifen gemessen. […]
# [2] = tested on: Rattenmodell der permanenten fokalen cerebralen Ischämie (MCA-O); test: Neuroprotection in the rat model of permanent focal cerebral ischaemia (MCA-O); type: in vivo, Ratte; conditions: 7 days survival, Placebo 146,69 ± 6,77
# Text: Unter allgemeiner Narkose (Isofluran) wird in der Mitte zwischen Auge und Ohr ein Hautschnitt gelegt und unter Durchtrennung der darunterliegenden Muskelpartien ein Zugang zum Schädel im Bereich des Foramen ovale geschaffen. Etwa 1 mm rostrodorsal dieser Öffnung wird der Schädelkalotte durchgebohrt, die darunterliegenden Hirnhäute eröffnet, und durch Elektrokoagulation die Arteria cerebri media und deren Nebenäste permanent verschlossen. Daraufhin wird die Kaumuskulatur in ihre ursprüngliche Lage gebracht. Die Muskel- und Hautwunde wird chirurgisch verschlossen und versorgt. Nach dem Aufwachen aus der Narkose werden die Tiere in ihren Heimkäfig zurückgesetzt. Im Verlauf der folgenden Stunden entwickelt sich im Versorgungsgebiet der Arteria cerebri media ein Infarkt, dessen Ausdehnung histologisch quantifiziert wird.
# Nach 7 Tagen Überlebenszeit werden die Tiere getötet, das Gehirn entnommen und in auf -30°C gekühltem 2-Methylbutan eingefroren. Mit Hilfe eines Kryostatmikrotoms werden 20 µm dicke Schnitte in 500 µm Abstand im Infarktbereich hergestellt. Nach der Cresylechtviolett-Färbung der fixierten Gehirnschnitte ist das Infarktgebiet vom nicht betroffenen Gewebe deutlich zu unterscheiden. […]
# [3] = biological target: T1, 5-HT1A Rezeptor gekoppelte Adenylatcyclase-Aktivität (Rattus norvegicus, UniProt P19327); test: Inhibition of forskolin-stimulated adenylate cyclase activity on hippocampal cell membranes; type: biochemical; conditions: Hippocampusmembranen der Ratte; 0,01 mM Forskolin; read-out: IC50-Wert, Inhibition der Forskolin-stimulierten Adenylatcyclase Aktivität
# T1 construct: an hippocampalen Zellmembranen der Ratte; from tissue; host or cells: rat hippocampus membranes
# T1 sequence (P19327 1-422): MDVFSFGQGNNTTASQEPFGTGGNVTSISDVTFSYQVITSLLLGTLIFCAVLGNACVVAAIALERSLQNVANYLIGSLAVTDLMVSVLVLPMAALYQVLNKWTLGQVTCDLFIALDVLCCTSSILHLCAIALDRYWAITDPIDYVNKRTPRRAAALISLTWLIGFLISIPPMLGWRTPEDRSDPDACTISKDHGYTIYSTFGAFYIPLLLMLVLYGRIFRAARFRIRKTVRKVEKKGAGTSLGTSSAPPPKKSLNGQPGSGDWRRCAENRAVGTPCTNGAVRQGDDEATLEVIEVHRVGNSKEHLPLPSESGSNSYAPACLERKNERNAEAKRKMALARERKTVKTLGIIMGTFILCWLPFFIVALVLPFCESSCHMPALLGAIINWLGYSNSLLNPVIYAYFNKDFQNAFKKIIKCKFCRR
# Experimental: 5-HT1A Rezeptor gekoppelte Adenylatcyclase-Aktivität wurde an hippocampalen Zellmembranen der Ratte mit der Methodik von De Vivo und Maayani (J. Pharmacol. Exp. Ther. 1986, 238, 248-253.) gemessen.
# Der Hippocampus wurde in 25 Volumen 0,3 M Sucroselösung (ergänzt mit 1mM EGTA, 5 mM EDTA, 5 mM Dithiothreitol und 20 mM Tris-HCl; pH 7,4 bei 25°C) in einem motorgetriebenen Potter-Elvehjem-Homogenisator zerkleinert. Das Homogenat wurde 10 min lang bei 1.000 g abzentrifugiert, danach der Überstand 10 min bei 39.000 g nochmals zentrifugiert. Das Pellet wurde im Homogenisationspuffer aufgenommen. Aliquots mit einem Proteingehalt von 1 mg/ml (gemessen nach Bradford Anal. Biochem. 1976, 72, 248-254.) wurden bei -140°C bis zur weiteren Verarbeitung aufbewahrt. Vor dem Assay wurde das aufgetaute Homogenat mit dem Potter-Elvehjem-Homogenisator nochmals homogenisiert. 50 µl Homogenat (mit ca. 50 µg Proteingehalt) wurden der vorgewärmten (5 min bei 30°C) Inkubationsmischung (100 mM NaCl, 2mM Magnesium Acetate 0,2 mM ATP, 1 mM cAMP, 0,01 mM GTP, 0,01 mM Forskolin, 80 mM Tris-HCl, 5 mM Creatine Phosphate, 0,8 U/µl Creatine Phosphokinase, 0,01 mM IBMX, 1 - 2 µCi α-[^32P]ATP) zupipettiert und so die Inkubation (10 min bei 30°C) gestartet.
# Zur Messung der Adenylatcyclase-Aktivität wurde die Menge des gebildeten [^32P]cAMP nach Salomon (Adv. Cyclic Nucleotide Res. 1979, 10, 35-55.) bestimmt.
SMILES,EC50 [1] [nM],"Infarktvolumen im cerebralen Cortex (Mittelwert ± S.E.M; mm^3) ([2]; 0,003 mg/kg/Std i.v. infusion over 4 h directly after occlusion)",IC50 [3] [nM],Infarktvolumen im cerebralen Cortex (Mittelwert ± S.E.M; mm^3) ([2]; i.v. infusion over 4 h directly after occlusion)
"COCCOC(=O)C1=C(C)NC(C)=C(C(=O)OC(C)C)C1c1cccc([N+](=O)[O-])c1 (racemic) [Nimodipin, (RS)-1,4-Dihydro-2,6-dimethyl-4-(3-nitrophenyl)-3,5-pyridindicarbonsäure-isopropylester-2-methoxyethylester]",2.9 to 4.3,"120,87 ± 8,79 mm^3",–,–
"O=C1c2ccccc2S(=O)(=O)N1CCCCNCC1CCc2ccccc2O1 (single isomer, unassigned) [5-HT1A-Agonist*]",–,–,1.6,"104,79 ± 7,63 mm^3"
COC(=O)C1=C(C)NC(C)=C(C(=O)OC)C1c1ccccc1[N+](=O)[O-] [Nifedipin],3.58,–,–,–
